{
  "source": "patent US20230271954A1",
  "about": "(Gossamer Bio Services, Inc., priority 2020, published 2023)",
  "key": {"[1]": {"target": "T1, DGKζ (Homo sapiens, UniProt Q13574)", "T1 construct": "purchased Carna 12-110", "T1 sequence (Q13574 1-929 isoform Q13574-4)": "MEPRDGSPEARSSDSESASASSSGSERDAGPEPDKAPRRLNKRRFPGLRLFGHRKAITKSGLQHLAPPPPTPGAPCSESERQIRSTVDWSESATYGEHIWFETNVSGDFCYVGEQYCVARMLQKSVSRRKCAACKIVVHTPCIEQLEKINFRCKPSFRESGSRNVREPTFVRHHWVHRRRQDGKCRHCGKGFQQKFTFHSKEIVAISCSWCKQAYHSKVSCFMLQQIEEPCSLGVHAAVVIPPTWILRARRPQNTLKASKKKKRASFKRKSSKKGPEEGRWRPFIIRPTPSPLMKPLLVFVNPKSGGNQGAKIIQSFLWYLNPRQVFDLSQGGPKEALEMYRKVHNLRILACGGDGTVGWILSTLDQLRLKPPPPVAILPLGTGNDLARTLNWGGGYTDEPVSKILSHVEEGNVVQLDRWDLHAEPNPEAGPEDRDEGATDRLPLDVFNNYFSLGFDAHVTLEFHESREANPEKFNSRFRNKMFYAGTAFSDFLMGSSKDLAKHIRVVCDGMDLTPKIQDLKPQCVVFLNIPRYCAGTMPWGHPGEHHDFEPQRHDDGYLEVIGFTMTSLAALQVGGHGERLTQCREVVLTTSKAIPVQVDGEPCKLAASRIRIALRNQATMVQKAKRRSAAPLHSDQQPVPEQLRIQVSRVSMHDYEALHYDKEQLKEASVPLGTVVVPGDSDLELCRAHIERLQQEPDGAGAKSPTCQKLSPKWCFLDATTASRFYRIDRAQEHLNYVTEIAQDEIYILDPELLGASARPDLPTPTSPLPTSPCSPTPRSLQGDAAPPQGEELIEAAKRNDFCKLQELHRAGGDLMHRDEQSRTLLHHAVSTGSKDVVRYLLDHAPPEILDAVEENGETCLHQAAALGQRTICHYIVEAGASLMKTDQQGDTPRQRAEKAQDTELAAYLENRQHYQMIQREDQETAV", "assay": "DGKζ biochemical assay (ADP-Glo)", "conditions": "read-out: DGK ζ IC50"}, "[2]": {"target": "DGKα (Homo sapiens, UniProt P23743)", "sequence (P23743 whole entry)": "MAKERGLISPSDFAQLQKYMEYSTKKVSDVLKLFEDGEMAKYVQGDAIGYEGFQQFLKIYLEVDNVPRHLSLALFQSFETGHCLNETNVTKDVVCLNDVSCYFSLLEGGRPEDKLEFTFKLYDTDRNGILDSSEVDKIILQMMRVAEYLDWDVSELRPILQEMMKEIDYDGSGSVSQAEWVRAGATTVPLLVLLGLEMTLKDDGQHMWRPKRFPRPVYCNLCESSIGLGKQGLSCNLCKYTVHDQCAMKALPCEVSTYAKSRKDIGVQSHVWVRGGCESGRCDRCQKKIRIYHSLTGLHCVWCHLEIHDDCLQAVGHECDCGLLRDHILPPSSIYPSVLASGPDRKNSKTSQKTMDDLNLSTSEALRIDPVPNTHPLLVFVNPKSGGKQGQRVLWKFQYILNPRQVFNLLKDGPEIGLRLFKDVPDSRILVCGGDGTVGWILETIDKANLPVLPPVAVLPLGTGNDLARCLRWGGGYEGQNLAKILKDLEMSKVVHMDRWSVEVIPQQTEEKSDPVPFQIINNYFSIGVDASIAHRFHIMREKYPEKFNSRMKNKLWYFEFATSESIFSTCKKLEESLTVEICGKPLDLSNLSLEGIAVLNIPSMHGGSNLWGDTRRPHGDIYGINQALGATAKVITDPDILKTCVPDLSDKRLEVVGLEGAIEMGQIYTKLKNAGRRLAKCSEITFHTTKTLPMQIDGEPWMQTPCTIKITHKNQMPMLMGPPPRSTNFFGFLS", "assay": "DGKα biochemical assay (ADP-Glo)", "conditions": "read-out: DGK α IC50", "how_it_was_run": "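ADP-Glo kinase assay using OAG/PS (1:2) lipid substrate, sonicated, in HEPES pH 7.0 buffer with MgCl2, CaCl2, DTT, BSA, Triton X-100. Enzyme preincubated with compound 30 min at RT; substrate with ATP (DGKα: 400 μM) added, 45 min RT. Luminescence read; % inhibition vs DMSO and no-enzyme controls.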"}},
  "data": [
    {"smiles": "Cn1c(=O)c(C#N)c(N(C)[C@H]2CC[C@@H](N(c3ccc(F)cc3)C3CC3)CC2)c2nc(C#N)ccc21", "note": "[Example 50, cis-8-((4-(cyclopropyl(4-fluorophenyl)amino)cyclohexyl)(methyl)amino)-5-methyl-6-oxo-5,6-dihydro-1,5-naphthyridine-2,7-dicarbonitrile]", "values": [
      {"measurement": "IC50", "setting": "[1]", "result": "100 to 1000", "unit": "nM"},
      {"measurement": "IC50", "setting": "[2]", "result": "< 10", "unit": "nM"}
    ]},
    {"smiles": "Cn1c(=O)c(C#N)c(N(C)[C@H]2CC[C@@H](N(c3ccc(F)cc3)C3CC3)CC2)c2nc(Cl)ccc21", "note": "[Example 51, cis-6-chloro-4-((4-(cyclopropyl(4-fluorophenyl)amino)cyclohexyl)(methyl)amino)-1-methyl-2-oxo-1,2-dihydro-1,5-naphthyridine-3-carbonitrile]", "values": [
      {"measurement": "IC50", "setting": "[1]", "result": "100 to 1000", "unit": "nM"},
      {"measurement": "IC50", "setting": "[2]", "result": "< 10", "unit": "nM"}
    ]},
    {"smiles": "CC(C)CN(c1ccc(F)cc1)[C@H]1CC[C@@H](N(C)c2c(C#N)c(=O)n(C)c3ccc(C#N)nc23)CC1", "note": "[Example 52, cis-8-((-4-((4-fluorophenyl)(isobutyl)amino)cyclohexyl)(methyl)amino)-5-methyl-6-oxo-5,6-dihydro-1,5-naphthyridine-2,7-dicarbonitrile]", "values": [
      {"measurement": "IC50", "setting": "[1]", "result": "10 to 100", "unit": "nM"},
      {"measurement": "IC50", "setting": "[2]", "result": "< 10", "unit": "nM"}
    ]},
    {"smiles": "Cn1c(=O)c(C#N)c(N(C)[C@H]2CC[C@@H](N(CC3CCOCC3)c3ccc(F)cc3)CC2)c2nc(C#N)ccc21", "note": "[Example 53, cis-8-((-4-((4-fluorophenyl)((tetrahydro-2H-pyran-4-yl)methyl)amino)cyclohexyl)(methyl)amino)-5-methyl-6-oxo-5,6-dihydro-1,5-naphthyridine-2,7-dicarbonitrile]", "values": [
      {"measurement": "IC50", "setting": "[1]", "result": "100 to 1000", "unit": "nM"},
      {"measurement": "IC50", "setting": "[2]", "result": "10 to 100", "unit": "nM"}
    ]},
    {"smiles": "Cn1c(=O)c(C#N)c(N(C)[C@H]2CC[C@H](N(CC3CC3)c3ccc(F)cc3)CC2)c2nc(C#N)ccc21", "note": "[Example 54, trans-8-((4-((cyclopropylmethyl)(4-fluorophenyl)amino)cyclohexyl)(methyl)amino)-5-methyl-6-oxo-5,6-dihydro-1,5-naphthyridine-2,7-dicarbonitrile]", "values": [
      {"measurement": "IC50", "setting": "[1]", "result": "100 to 1000", "unit": "nM"},
      {"measurement": "IC50", "setting": "[2]", "result": "100 to 1000", "unit": "nM"}
    ]},
    {"smiles": "Cn1c(=O)c(C#N)c(N(C)[C@H]2CC[C@H](N(CC3CCOCC3)c3ccc(F)cc3)CC2)c2nc(C#N)ccc21", "note": "[Example 59, trans-8-((-4-((4-fluorophenyl)((tetrahydro-2H-pyran-4-yl)methyl)amino)cyclohexyl)(methyl)amino)-5-methyl-6-oxo-5,6-dihydro-1,5-naphthyridine-2,7-dicarbonitrile]", "values": [
      {"measurement": "IC50", "setting": "[1]", "result": "100 to 1000", "unit": "nM"},
      {"measurement": "IC50", "setting": "[2]", "result": "100 to 1000", "unit": "nM"}
    ]},
    {"smiles": "Cn1c(=O)c(C#N)c(N(C)[C@H]2CC[C@@H](N(CC3CC3)c3ccc(F)c(F)c3)CC2)c2nc(C#N)ccc21", "note": "[Example 60, cis-8-((4-((cyclopropylmethyl)(3,4-difluorophenyl)amino)cyclohexyl)(methyl)amino)-5-methyl-6-oxo-5,6-dihydro-1,5-naphthyridine-2,7-dicarbonitrile]", "values": [
      {"measurement": "IC50", "setting": "[1]", "result": "10 to 100", "unit": "nM"},
      {"measurement": "IC50", "setting": "[2]", "result": "100 to 1000", "unit": "nM"}
    ]},
    {"smiles": "Cn1c(=O)c(C#N)c(N(C)[C@H]2CC[C@@H](N(CC3CC3)c3ccc4c(c3)OCO4)CC2)c2nc(C#N)ccc21", "note": "[Example 61, cis-8-((4-(benzo[d][1,3]dioxol-5-yl(cyclopropylmethyl)amino)cyclohexyl)(methyl)amino)-5-methyl-6-oxo-5,6-dihydro-1,5-naphthyridine-2,7-dicarbonitrile]", "values": [
      {"measurement": "IC50", "setting": "[1]", "result": "10 to 100", "unit": "nM"},
      {"measurement": "IC50", "setting": "[2]", "result": "100 to 1000", "unit": "nM"}
    ]},
    {"smiles": "COc1cc(F)ccc1N(C)[C@H]1CC[C@@H](N(C)c2c(C#N)c(=O)n(C)c3ccc(C#N)nc23)CC1", "note": "[Example 64]", "values": [
      {"measurement": "IC50", "setting": "[1]", "result": "10 to 100", "unit": "nM"},
      {"measurement": "IC50", "setting": "[2]", "result": "10 to 100", "unit": "nM"}
    ]},
    {"smiles": "COc1cc(N(C2CC2)[C@H]2CC[C@@H](N(C)c3c(C#N)c(=O)n(C)c4ccc(C#N)nc34)CC2)ccc1F", "note": "[Example 65]", "values": [
      {"measurement": "IC50", "setting": "[1]", "result": "10 to 100", "unit": "nM"},
      {"measurement": "IC50", "setting": "[2]", "result": "10 to 100", "unit": "nM"}
    ]},
    {"smiles": "Cn1c(=O)c(C#N)c(N(C)[C@H]2CC[C@@H](N(C[C@H]3CCOC3)c3ccc(F)cc3)CC2)c2nc(C#N)ccc21", "note": "[Example 66]", "values": [
      {"measurement": "IC50", "setting": "[1]", "result": "100 to 1000", "unit": "nM"},
      {"measurement": "IC50", "setting": "[2]", "result": "10 to 100", "unit": "nM"}
    ]},
    {"smiles": "Cn1c(=O)c(C#N)c(N(C)[C@H]2CC[C@@H](N(C[C@@H]3CCOC3)c3ccc(F)cc3)CC2)c2nc(C#N)ccc21", "note": "[Example 67]", "values": [
      {"measurement": "IC50", "setting": "[1]", "result": "100 to 1000", "unit": "nM"},
      {"measurement": "IC50", "setting": "[2]", "result": "10 to 100", "unit": "nM"}
    ]},
    {"smiles": "Cn1c(=O)c(C#N)c(N(C)[C@H]2CC[C@@H](N(C[C@H]3CCCOC3)c3ccc(F)cc3)CC2)c2nc(C#N)ccc21", "note": "[Example 68]", "values": [
      {"measurement": "IC50", "setting": "[1]", "result": "10 to 100", "unit": "nM"},
      {"measurement": "IC50", "setting": "[2]", "result": "< 10", "unit": "nM"}
    ]},
    {"smiles": "Cn1c(=O)c(C#N)c(N(C)[C@H]2CC[C@@H](N(C[C@@H]3CCCOC3)c3ccc(F)cc3)CC2)c2nc(C#N)ccc21", "note": "[Example 69]", "values": [
      {"measurement": "IC50", "setting": "[1]", "result": "10 to 100", "unit": "nM"},
      {"measurement": "IC50", "setting": "[2]", "result": "10 to 100", "unit": "nM"}
    ]},
    {"smiles": "Cc1ccccc1N(CC1CC1)[C@H]1CC[C@H](N(C)c2cc(=O)n(C)c3ccc(C#N)nc23)CC1", "note": "[Example 70, trans-8-((4-((cyclopropylmethyl)(o-tolyl)amino)cyclohexyl)(methyl)amino)-5-methyl-6-oxo-5,6-dihydro-1,5-naphthyridine-2-carbonitrile]", "values": [
      {"measurement": "IC50", "setting": "[1]", "result": "100 to 1000", "unit": "nM"},
      {"measurement": "IC50", "setting": "[2]", "result": "≥ 1000", "unit": "nM"}
    ]},
    {"smiles": "Cc1ccccc1N(CC1CC1)[C@H]1CC[C@H](N(C)c2c(C#N)c(=O)n(C)c3ccc(C#N)nc23)CC1", "note": "[Example 71, trans-8-((4-((cyclopropylmethyl)(o-tolyl)amino)cyclohexyl)(methyl)amino)-5-methyl-6-oxo-5,6-dihydro-1,5-naphthyridine-2,7-dicarbonitrile]", "values": [
      {"measurement": "IC50", "setting": "[1]", "result": "10 to 100", "unit": "nM"},
      {"measurement": "IC50", "setting": "[2]", "result": "≥ 1000", "unit": "nM"}
    ]},
    {"smiles": "Cc1cc(F)ccc1N(CC1CC1)[C@H]1CC[C@H](N(C)c2cc(=O)n(C)c3ccc(C#N)nc23)CC1", "note": "[Example 72, trans-8-((4-((cyclopropylmethyl)(4-fluoro-2-methylphenyl)amino)cyclohexyl)(methyl)amino)-5-methyl-6-oxo-5,6-dihydro-1,5-naphthyridine-2-carbonitrile]", "values": [
      {"measurement": "IC50", "setting": "[1]", "result": "100 to 1000", "unit": "nM"},
      {"measurement": "IC50", "setting": "[2]", "result": "≥ 1000", "unit": "nM"}
    ]},
    {"smiles": "Cc1cc(F)ccc1N(CC1CC1)[C@H]1CC[C@H](N(C)c2c(C#N)c(=O)n(C)c3ccc(C#N)nc23)CC1", "note": "[Example 73, trans-8-((4-((cyclopropylmethyl)(4-fluoro-2-methylphenyl)amino)cyclohexyl)(methyl)amino)-5-methyl-6-oxo-5,6-dihydro-1,5-naphthyridine-2,7-dicarbonitrile]", "values": [
      {"measurement": "IC50", "setting": "[1]", "result": "10 to 100", "unit": "nM"},
      {"measurement": "IC50", "setting": "[2]", "result": "10 to 100", "unit": "nM"}
    ]},
    {"smiles": "Cn1c(=O)cc(N(C)[C@H]2CC[C@@H](N(CC3CC3)c3ccc4c(c3)OCO4)CC2)c2nc(C#N)ccc21", "note": "[Example 75]", "values": [
      {"measurement": "IC50", "setting": "[1]", "result": "≥ 1000", "unit": "nM"},
      {"measurement": "IC50", "setting": "[2]", "result": "10 to 100", "unit": "nM"}
    ]},
    {"smiles": "Cn1c(=O)c(C#N)c(N(C)[C@H]2CC[C@H](N(CC3CC3)c3ccc(F)c(OC(F)F)c3)CC2)c2nc(C#N)ccc21", "note": "[Example 76]", "values": [
      {"measurement": "IC50", "setting": "[1]", "result": "100 to 1000", "unit": "nM"},
      {"measurement": "IC50", "setting": "[2]", "result": "100 to 1000", "unit": "nM"}
    ]}
  ]
}
